Test results reported in ChEMBL document CHEMBL4513101, “Naegleria gruberi Pathogen Box compounds screening” (2021).
Calls of active or inactive are those of the source. No stated cut-off is given here; in the data, active = inhibition of 80% or more and inactive = less.

system: Naegleria gruberi; test: microbe, parasite or virus in culture; format: functional; settings: NEG-M, CONC 10 uM
Description: Growth inhibiting activity of Naegleria gruberi in vitro

Row | Compound | inhibition at 10 µM
1 | O=C(C1CCN(c2nnnn2-c2ccccc2)CC1)N1CCc2ccccc2C1 | 25.8% (not active)
2 | CCc1nc2ccccc2n1CC(O)COc1cc(C)ccc1Cl (stereo unspecified) | 25.3% (not active)
3 | NC(=O)c1cc(Br)ccc1OCCOc1ccccc1 | 36.1% (not active)
4 | O=C(Nc1ccccc1-c1nc2c(C(=O)O)cccc2o1)c1ccccc1 | 39.5% (not active)
5 | C[C@H](c1ccc2c(c1)CCCC2)N(C)c1ncc2c(N)nc(N)nc2n1 | 29.6% (not active)
6 | COc1ccc(Nc2ccccc2NC(=O)c2ccc(O)nc2)cc1 | 24.1% (not active)
7 | Cc1nn2c(O)c3c(nc2c1-c1ccc(F)cc1)CCCC3 | 30.1% (not active)
8 | O=C(Nc1c(O)cccc1-c1nc2c(C(=O)O)cccc2o1)c1cc(-c2ccccc2)on1 | 18.4% (not active)
9 | COc1cc(-c2cc(-c3ccc(S(C)(=O)=O)cc3)cnc2N)ccc1O | 67.8% (not active)
10 | Cc1noc(C)c1COc1cccc(C(=O)N=c2[nH]cccc2C)c1 | 36.7% (not active)
11 | Nc1ncnc2c1c(-c1cnc3ccccc3c1)nn2CC1CCNCC1 | 4.9% (not active)
12 | CC(C)(C)OC(=O)N1CCN(c2cc(-c3ccc(Oc4ccccc4)cc3)n[nH]2)CC1 | 65.7% (not active)
13 | O=C(NC1CCCCC1)N1CCN(Cc2ccc3c(c2)OCO3)CC1 | 31.3% (not active)
14 | CC(Oc1ccccc1)C(=O)Nc1nc(-c2ccccn2)cs1 (stereo unspecified) | 32.3% (not active)
15 | COc1ccc2nc(C)cc(OCC(=O)NCc3ccccc3)c2c1 | 41.1% (not active)
16 | O=C(c1cc2ccccc2o1)N1CCN(Cc2ccc3c(c2)OCO3)CC1 | 28.6% (not active)
17 | C[C@H]1c2cccc(O)c2C(=O)C2=C(O)[C@]3(O)C(=O)C(C(N)=O)=C(O)[C@@H](N(C)C)[C@@H]3[C@@H](O)[C@@H]21 [DOXYCYCLINE] | 59.8% (not active)
18 | O=S(=O)(c1ccc(Cl)cc1)N1CCN(C(=S)NCc2ccco2)CC1 | 38% (not active)
19 | CN1CCN(c2cc(-c3ccc(F)cc3)nc(-c3ccncc3)n2)CC1 | 30% (not active)
20 | COc1cccc(OCC(=O)c2ccc(Br)cc2)c1 | 33.4% (not active)
21 | O=C(NCc1nnc2n1CCCCC2)c1ccc(-c2ccc(F)cc2)o1 | 29.3% (not active)
22 | CC(=O)NC[C@H]1CN(c2ccc(N3CCSCC3)c(F)c2)C(=O)O1 [SUTEZOLID] | 45.7% (not active)
23 | Cc1cc(O)nc(-n2nc(C)cc2C)n1 | 3.8% (not active)

Row | Compound | inhibition at 10 µM
24 | CC(C)(C)n1nc(Cc2cccc3ccccc23)c2c(N)ncnc21 | 13.8% (not active)
25 | CCCS(=O)(=O)N1CCC(CO)(Cc2ccccc2C(F)(F)F)CC1 | 19% (not active)
26 | CNC(=O)C1Cc2ccccc2N1C(=O)Cc1ccc(F)cc1 (stereo unspecified) | 38% (not active)
27 | CC(C)(C)n1nc(-c2ccccc2)c2c(N)ncnc21 | 55.1% (not active)
28 | CCOc1ccc2cc(-c3nn(C(C)(C)C)c(N)c3C(N)=O)cnc2c1 | 92.5% (active)
29 | CCC(C)NC(=O)c1ccc(NC(=O)C2(c3ccccc3)CCCC2)cc1 (stereo unspecified) | 0.4% (not active)
30 | CC(C)(C)C(O)C(Oc1ccc(-c2ccccc2)cc1)n1cncn1 (stereo unspecified) [BITERTANOL] | 81% (active)
31 | Cc1ccc2c(c1C)NC(=O)C21NN=C(c2ccccc2)S1 (stereo unspecified) | 20.7% (not active)
32 | CNC(=O)C1Cc2c([nH]c3cc(Cl)ccc23)C2(CCN(CCc3ccccc3)CC2)N1 (stereo unspecified) | 11.5% (not active)
33 | Nc1ncc(-c2ccc(C(F)(F)F)nc2)cc1-c1ccc(C(F)(F)F)nc1 | 16.5% (not active)
34 | COc1ccc2nc(C)cc(OCC(=O)Nc3ccccc3OC)c2c1 | 34.9% (not active)
35 | CC(=O)N1CCN(c2ccc(Oc3ccc(Cl)cc3O)cc2)CC1 | 0% (not active)
36 | O=C(Nc1cccnc1)c1c(O)c2cccc3c2n(c1=O)CC3 | 40.3% (not active)
37 | Cc1cnc(N2CCN[C@@H](Cc3ccccc3)C2)nc1Oc1ccc(-n2ccnc2)cc1 | 9.8% (not active)
38 | CNC(=O)c1cc(S(=O)(=O)N2CCN(c3ccccn3)CC2)cs1 | 32.9% (not active)
39 | Cc1cccc(Cn2ccc(NC(=O)c3ccc4c(c3)OCO4)n2)c1 | 59.7% (not active)
40 | CCOc1ccccc1C(=O)Nc1cccc(-c2nc3ncccn3c2C)c1 | 34.5% (not active)
41 | CCc1ccc(C(NCc2nc(N)nc(N(C)C)n2)C(C)C)cc1 (stereo unspecified) | 18.9% (not active)
42 | Cc1ccc(NC(=O)c2nc[nH]c2C(=O)Nc2nc3ccccc3[nH]2)c(C)c1 | 22.8% (not active)
43 | CNC(=O)CNc1nc(-c2ccccn2)nc2scc(-c3ccccc3)c12 | 22.6% (not active)
44 | Cc1nn(Cc2ccccc2)c(Cl)c1C(=O)NC1CCCCCC1 | 36.1% (not active)
45 | Nc1ncnc2c1ncn2[C@@H]1O[C@H](COS(=O)(=O)NC(=O)c2ccccc2O)[C@@H](O)[C@H]1O | 14.5% (not active)
46 | Oc1c(I)cc(I)c2cccnc12 [IODOQUINOL] | 51.6% (not active)

Row | Compound | inhibition at 10 µM
47 | Cc1ccc(S(=O)(=O)Nc2ccc(CN3CCN(C(=O)c4cccc(C#N)c4)CC3)cc2)cc1 | 19.9% (not active)
48 | COc1ccccc1CNC(=O)c1cc(C2CC2)nc2c1cnn2C(C)C | 49.8% (not active)
49 | COc1ccc(-c2cc(NC(=O)c3ccc(F)cc3Cl)ccc2OC)cc1 | 38.4% (not active)
50 | CCn1cnc2c(Nc3cc(F)cc(F)c3)nc(C#N)nc21 | 83.2% (active)
51 | CCCCc1ccc(NC(=O)Nc2ccc(O[C@H]3CCCC[C@@H]3N(C)c3ccccc3)c(F)c2)cc1 | 41.1% (not active)
52 | COc1ccc(Cl)cc1NC(=O)CN(C)C(=O)c1cnn(-c2ccccc2)n1 | 37.1% (not active)
53 | COc1cc(CN2CCC3(C=Cc4ccccc43)CC2)cc2c1OCO2 | 38.6% (not active)
54 | CC(C)(C)[C@H]1CC[C@H](CC2=C(O)C(=O)c3ccccc3C2=O)CC1 [BUPARVAQUONE] | 92.9% (active)
55 | CS(=O)(=O)c1ccc(C(=O)N(CC2CCCO2)c2nc3ccccc3s2)cc1[N+](=O)[O-] (stereo unspecified) | 58.7% (not active)
56 | CC(C)C(C(=O)Nc1ccc(S(=O)(=O)N(C)C)cc1)c1ccc(Cl)cc1 (stereo unspecified) | 41% (not active)
57 | Cc1ccc(S(=O)(=O)N2CCN(C(=O)c3cc(-c4ccccc4)n[nH]3)CC2)cc1 | 22.3% (not active)
58 | Cc1cc(C)cc(COc2ccc3c(C)c(CCC(=O)O)c(=O)oc3c2C)c1 | 40.9% (not active)
59 | CC(C)(CN)c1nc(-c2ccc(Cl)c(O)c2)c(-c2ccnc(N)n2)[nH]1 | 6.4% (not active)
60 | O=C(Nc1nnc(-c2ccc(Cl)s2)o1)c1ccc(Cl)s1 | 21.9% (not active)
61 | Cc1cccc(NC(=O)c2cc(S(=O)(=O)N(C)c3ccc(F)cc3)ccc2Cl)n1 | 42.3% (not active)
62 | Cc1ccc2nc(Cl)c(CNCc3cccs3)cc2c1 | 35.5% (not active)
63 | C[C@H](C(N)=O)N1CCCC[C@H]1c1ccc(OCc2cccc(F)c2)cc1 | 15.8% (not active)
64 | CN1CCN(c2nccc3[nH]c(-c4cccc(F)c4)cc23)CC1 | 0% (not active)
65 | Cc1cc(Nc2ccc(C(F)(F)F)cc2)n2ccnc2n1 | 0% (not active)
66 | CN1CCC(c2cc(-c3ccncc3)c(-c3ccc(F)cc3)[nH]2)CC1 | 0% (not active)
67 | NCC(c1cccs1)S(=O)(=O)c1ccccc1 (stereo unspecified) | 7.1% (not active)
68 | COc1cc(C2=NCCN2)cc2cc(-c3ccc(C4=NCCN4)cc3)oc12 | 11.2% (not active)
69 | CCc1nc2ccc(Cl)cn2c1C(=O)NCc1ccc(N2CCC(c3ccc(OC(F)(F)F)cc3)CC2)cc1 [TELACEBEC] | 42.4% (not active)

Row | Compound | inhibition at 10 µM
70 | N=C(N)c1ccc(OCCCCCOc2ccc(C(=N)N)cc2)cc1 [PENTAMIDINE] | 43% (not active)
71 | O=C(Cn1ccnc1[N+](=O)[O-])NCc1ccccc1 [BENZNIDAZOLE] | 37.4% (not active)
72 | Nc1ncc(Br)cc1-c1nc2cc(Cl)cnc2[nH]1 | 15.3% (not active)
73 | CC1(C)Cc2c(c(N3CCOCC3)nc3snc(Br)c23)CO1 | 0% (not active)
74 | CC(C)(C(=O)Nc1ccc(F)cc1)n1cc(-c2ccccc2F)cn1 | 30.2% (not active)
75 | COc1ccccc1OCCCCn1c(C2CC2)nc2ccccc21 | 42.6% (not active)
76 | N=C(N)c1ccc(-c2cc(-c3ccccc3)on2)cc1 | 26.5% (not active)
77 | NC(CC(=O)c1ccc(Cl)cc1Cl)C(Cl)(Cl)Cl (stereo unspecified) | 11.7% (not active)
78 | O=C(Nc1ccc(N2CCNCC2)nc1)c1oc(-c2ccccc2)nc1C(F)(F)F | 15.4% (not active)
79 | Cc1ccc(-c2nc(CN(Cc3ccccn3)C(C)C)cs2)o1 | 26.7% (not active)
80 | O=C(C1CCCCC1)N1CC(=O)N2CCc3ccccc3C2C1 (stereo unspecified) [PRAZIQUANTEL] | 41.5% (not active)
81 | COCC(C)NC(=O)CSc1ncnc2sc(-c3ccccc3)cc12 (stereo unspecified) | 45.7% (not active)
82 | Cc1nc(-c2ccccn2)nc(NCCc2ccc(S(C)(=O)=O)cc2)c1Cl | 26.6% (not active)
83 | CC(=O)Oc1ccccc1C(=O)Nc1ncc([N+](=O)[O-])s1 [NITAZOXANIDE] | 62.7% (not active)
84 | CCn1ncc2c(NC3CCOCC3)c(CNC(=O)c3ccnn3C)c(C)nc21 | 0.8% (not active)
85 | CCNC(=O)C(C)Nc1nc(-c2cccnc2)nc2sc(C)c(C)c12 (stereo unspecified) | 12.2% (not active)
86 | O=C(Nc1nc(-c2ccccn2)cs1)C1CC1c1ccccc1F (stereo unspecified) | 46.3% (not active)
87 | COc1ccc(N(CCc2cccc(C)n2)C(=O)C2CCCCC2)cc1 | 20% (not active)
88 | CCCn1nnc(NC(=O)COc2ccc(C3CCCCC3)cc2)n1 | 33% (not active)
89 | COc1cccc(NC(=O)c2c(NC(=O)c3cccnc3)sc3c2CCC3)c1 | 62.6% (not active)
90 | Cc1nnc(NC(=O)c2cn(-c3ccccc3)nc2-c2ccccc2C)o1 | 34.7% (not active)
91 | c1ccc2c(c1)CN(CC1CC1)CC1(CCN(Cc3c[nH]c4cnccc34)CC1)O2 | 4.4% (not active)
